Test results as given in US20020025940A1, “Methods and compositions for sensitive and rapid, functional identification of genomic polynucleotides and use for cellular assays in drug discovery” (Aurora Biosciences Corporation, priority 1997, published 2002).
Like-named read-outs stand apart in the source and are kept apart here.

Columns and labels:
[1] = system: T-cell receptor pathway (clone J32-6D4)
Description: Thus, this clone was used to identify chemicals that inhibit this T-cell receptor pathway that is also stimulated by the PKC activator PMA.

[2] = system: BLEC integrated RBL-1 cell clones; experiment: FACS of BLEC-1 integrated RBL-1 clones after ionomycin stimulation (CCF2/AM blue/green); format: cell-based, rat
Procedure: This library of BLEC-1 integrated clones was loaded with the fluorescent substrate of BL (CCF-2-AM) by adding 10 microM CCF-2-AM in HBSS containing […] at pH 7.1 and 1% glucose. After a 1 hour incubation at 22° C. cells were washed with HBSS and viewed upon excitation with 400 nm light using a 435 nm long pass emission filter. Under these assay conditions 10% of the cells were blue fluorescent indicating they were expressing beta-lactamase.
Fluorescent activated cell sorting of multi-clonal populations of RBL-1 gene integrated clones was used to identify clones with regulated BL gene expression. A BL non-expressing population of cells was isolated by sorting a library of BLEC-1 integrated clones generated by transfection of RBL-1 cells as described in Example 2. 180,000 clones expressing little or no BL were isolated by sorting for clones with a low blue/green ratio (R1 population), as shown in FIG. 4A. This population of clones was grown for seven days and resorted by FACS to test the population's fluorescent properties. […] It is also clear that the total population has shifted towards more green cells compared to the parent population, as shown in FIG. 4A. There are, however, cells with a high blue/green ratio showing up in the green sorted population. These may represent clones in which the BLEC has integrated into a differentially regulated gene such as a gene whose expression changes throughout the cell cycle.
The population of RBL-1 clones shown in FIG. 4B was stimulated by addition of 1 uM ionomycin for 6 hours and resorted to identify clones which had the BLEC integrated into a gene which is inducible by increasing intracellular calcium. A greater percentage of blue clones were present in all three of the blue sub-population (R4, R2, R5) in the ionomycin stimulated when compared to the unstimulated population.

Jurkat cells = experiment: Proliferation assay (MTT), Jurkat cells; format: cell-based, human; details: concentrations up to 10 microM, five days
Procedure: (§1) Chemicals A and B were further tested for their anti-proliferative effect on Jurkat cells and mouse L-cells (mouse fibroblast cell line). […] Proliferation assays were performed by seeding about 20,000 cells unactivated by PHA into a 24 well plate. These cells were contacted with chemicals and were then incubated at 37° C. for five days. The cells were contacted with 10 micrograms/ml of MTT (Sigma Chemical Co., MO) for three hours. The cells were then collected, resuspended in isopropanol, and the absorbance was read in a plate reader at a wavelength of 570 nm with a background subtraction at a reading at a wavelength of 690 nm (see, Carmichael et al., Cancer Res. 47:936 (1987)).

[3] = system: mouse L-cells (mouse fibroblast cell line); experiment: Proliferation assay (MTT), mouse L-cells; format: cell-based; details: concentrations up to 10 microM, five days
Procedure: as §1

[4] = 10 microM chemical, 1 microgram/ml of PHA for 18 hours

CN(C)c1ccc(C(=C2C=CC(=[N+](C)C)C=C2)c2ccc(N(C)C)cc2)cc1 [Gentian Violet]
% Inhibition of PHA activation of Clone J32-6D4 [1, 4]: 73%

C[C@H]1O[C@@H](O[C@H]2[C@@H](O)C[C@H](O[C@H]3[C@@H](O)C[C@H](O[C@H]4CC[C@@]5(C)[C@H](CC[C@@H]6[C@@H]5C[C@@H](O)[C@]5(C)[C@@H](C7=CC(=O)OC7)CC[C@]65O)C4)O[C@@H]3C)O[C@@H]2C)C[C@H](O)[C@@H]1O [Digoxin]
% Inhibition of PHA activation of Clone J32-6D4 [1]: 86%

C[C@H]1O[C@@H](O[C@H]2[C@@H](O)C[C@H](O[C@H]3[C@@H](O)C[C@H](O[C@H]4CC[C@@]5(C)[C@H](CC[C@@H]6[C@@H]5CC[C@]5(C)[C@@H](C7=CC(=O)OC7)CC[C@]65O)C4)O[C@@H]3C)O[C@@H]2C)C[C@H](O)[C@@H]1O [Digitoxin]
% Inhibition of PHA activation of Clone J32-6D4 [1, 4]: 77%

C[C@H](CCC(=O)O)C[C@H](C)C[C@H](C)C(=O)/C=C(\O)[C@H](C)C[C@H](C)C/C=C/[C@@H](C)[C@@H](O)[C@@H](C)[C@@H](O)C[C@@H]1CC[C@@](C)([C@H]2CC[C@@](C)([C@@H](C)O)O2)O1 [Ionomycin, ionomycin]
Ratio +Ion/−Ion, sort window R4 (blue) ([2]; 1 uM ionomycin vs unstimulated): 2.2
Ratio +Ion/−Ion, sort window R5 ([2]; 1 uM ionomycin vs unstimulated): 1.6
Ratio +Ion/−Ion, sort window R6 (green) ([2]; 1 uM ionomycin vs unstimulated): .9
Stimulated % of cells in sort window R4 (blue) ([2]; 1 uM ionomycin, 6 hours, R4 highest blue/green ratio): .24%
Stimulated % of cells in sort window R5 ([2]; 1 uM ionomycin, 6 hours, R5 lower blue/green ratio): 2.5%
Stimulated % of cells in sort window R6 (green) ([2]; 1 uM ionomycin, 6 hours, R6 green): 61.64%

[O-][n+]1ccccc1SSc1cccc[n+]1[O-] [Dipyrithione]
% Inhibition of PHA activation of Clone J32-6D4 [1, 4]: 70%

Nc1nc2nc[nH]c2c(=S)[nH]1 [Thioguanine]
% Inhibition of PHA activation of Clone J32-6D4 [1, 4]: 50%

O=C(O)/C=C/c1ccc2ccccc2n1 [chemical B]
anti-proliferative effect on Jurkats (Jurkat cells): no anti-proliferative effect
anti-proliferative effect on L-cells [3]: no anti-proliferative effect
IC50 ([1]; Homo sapiens, T-cell, read-out: IC50 of the inhibition of PHA activation of beta-lactamase expression): ~200 nM

CCCCC1C(=O)N(c2ccccc2)N(c2ccc(O)cc2)C1=O (stereo not shown) [Oxyphenbutazone]
% Inhibition of PHA activation of Clone J32-6D4 [1, 4]: 75%

C[C@@H]1O[C@@H](O[C@H]2C[C@@H](O)[C@]3(CO)[C@H]4[C@H](O)C[C@]5(C)[C@@H](C6=CC(=O)OC6)CC[C@]5(O)[C@@H]4CC[C@]3(O)C2)[C@H](O)[C@H](O)[C@H]1O [Quabain]
% Inhibition of PHA activation of Clone J32-6D4 [1, 4]: 50%
